Results from PubChem BioAssay (NCI).
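How tested: cells in 96-well plates exposed to compound for 48 hours at five concentrations. TGI denotes the concentration required for complete inhibition of growth.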

Tests used:
Experiment in all cases: growth of human tumour cells (NCI), 48 h
OVCAR-4 ovarian = tested on: OVCAR-4 ovarian
OVCAR-8 ovarian = tested on: OVCAR-8 ovarian
MCF7 breast = tested on: MCF7 breast
RXF 393 renal = tested on: RXF 393 renal
UACC-257 melanoma = tested on: UACC-257 melanoma
KM12 colon = tested on: KM12 colon
SK-OV-3 ovarian = tested on: SK-OV-3 ovarian
HCT-116 colon = tested on: HCT-116 colon
HL-60(TB) leukemia = tested on: HL-60(TB) leukemia
A549 NSCLC = tested on: A549 NSCLC
MALME-3M melanoma = tested on: MALME-3M melanoma
PC-3 prostate = tested on: PC-3 prostate
OVCAR-3 ovarian = tested on: OVCAR-3 ovarian
TK-10 renal = tested on: TK-10 renal
T-47D breast = tested on: T-47D breast
HCC-2998 colon = tested on: HCC-2998 colon
NCI/ADR-RES ovarian = tested on: NCI/ADR-RES ovarian
MDA-MB-231 breast = tested on: MDA-MB-231 breast
SF-268 CNS = tested on: SF-268 CNS
DLD-1 colon = tested on: DLD-1 colon

Row | SMILES | TGI (OVCAR-4 ovarian) [µM] | TGI (OVCAR-8 ovarian) [µM] | TGI (MCF7 breast) [µM] | TGI (RXF 393 renal) [µM] | TGI (UACC-257 melanoma) [µM] | TGI (KM12 colon) [µM] | TGI (SK-OV-3 ovarian) [µM] | TGI (HCT-116 colon) [µM] | TGI (HL-60(TB) leukemia) [µM] | TGI (A549 NSCLC) [µM] | TGI (MALME-3M melanoma) [µM] | TGI (PC-3 prostate) [µM] | TGI (OVCAR-3 ovarian) [µM] | TGI (TK-10 renal) [µM] | TGI (T-47D breast) [µM] | TGI (HCC-2998 colon) [µM] | TGI (NCI/ADR-RES ovarian) [µM] | TGI (MDA-MB-231 breast) [µM] | TGI (SF-268 CNS) [µM] | TGI (DLD-1 colon) [µM]
1 | CC(C)OP(=O)(OC(C)C)C(C)(C)O | > 100 | > 100 | > 100 | > 100 | > 100 | > 100 | > 100 | > 100 | > 100 | > 100 | > 100 | > 100 | > 100 | > 100 | > 100 | > 100 | > 100 | > 100 | > 100 | 
2 | CC(Oc1ccc(Cl)cc1Cl)C(=O)NN1C(=O)CC(=O)N(c2ccccc2)C1=S (centres undefined) | > 100 | > 100 | > 100 | > 100 | > 100 | > 100 | > 100 | > 100 | 5.73 | > 100 | > 100 | > 100 | > 100 | > 100 | > 100 | > 100 | > 100 | > 100 | > 100 | 
3 | O=C(Nc1ccccc1)OCCN=C1c2ccccc2CCc2ccccc21 | > 100 | > 100 | 57.8 | 50.2 | 54.2 | 33.1 | 92.3 | 30 | 42.2 | > 100 | 57.9 | 82.8 | 44.3 | > 100 | 45 | 45.9 | 72.4 | 37.1 | 75.4 | 
4 | CCCc1cc(OC(=O)c2c(O)cc(OC)cc2CCC)cc(O)c1C(=O)O |  | > 100 |  | 53.2 | 56.2 | > 100 | 68.4 | 32.2 | 52.7 | > 100 | 42.3 |  | 61.2 | > 100 |  | 66.2 |  |  |  | > 100
5 | CC(C)[Si]1(C(C)C)OCC2OC(n3ccc(=O)[nH]c3=O)C([Se]c3ccccc3)C2O[Si](C(C)C)(C(C)C)O1 (centres undefined) | 9.67 | 10.7 | 8.27 | 9.65 | 13.9 | 6.62 | 31.2 | 7.16 | > 25.4 | 22.1 | 8.93 | 11.9 | 9.73 | 19.9 | 19.9 | 3 | 26.7 | 7.79 | 10.3 | 
6 | CC(C)(C)OC(=O)N1CCCC1C(=O)NC(c1ccccc1)c1ccccc1 (centres undefined) | > 100 | > 100 | > 100 | > 100 | > 100 | > 100 | > 100 | > 100 | > 100 | > 100 | > 100 | > 100 | > 100 | > 100 | > 100 | > 100 | > 100 | > 100 | > 100 | 
7 | CC(C)(C)O/N=C/c1cc(NC(=S)c2ccsc2)ccc1Cl | 28.7 | 29.7 | 24.8 | 36.8 | 25.2 | 23.3 | 46.8 | 26.5 | 39 | 63.8 | 31.5 | 26.1 | 28.1 | 26.6 | 16.1 | 27.6 | 33.9 | 32.1 | 38.2 | 
8 | COC(=O)C(=O)Nc1cc2c3c(c1)Oc1cccc4c1C3(C)c1c(cccc1O2)O4 | > 100 | > 100 | > 100 | 56.9 | > 100 | > 100 | > 100 | > 100 | 14.2 | > 100 | > 100 | > 100 | > 100 | > 100 | > 100 | > 100 | > 100 | > 100 | > 100 | 
9 | Cc1ccc2nc(NS(=O)(=O)c3cc(C)c(Cl)cc3S)[nH]c2c1 | > 100 | > 100 | > 100 | > 100 | > 100 | > 100 | > 100 | > 100 | 72.7 | > 100 | > 100 | > 100 | > 100 | > 100 | > 100 | > 100 | > 100 | > 100 | > 100 | 
10 | CC(C)(C)OC(=O)CCCCCNC(=O)CCCCCNC(=O)CCC(CN(CC(=O)OCc1ccccc1)CC(=O)OCc1ccccc1)N(CC(=O)OCc1ccccc1)CC(=O)OCc1ccccc1 (centres undefined) | > 100 | > 100 | > 100 | > 100 | > 100 | > 100 | > 100 | > 100 | > 100 | > 100 | > 100 | > 100 | > 100 | > 100 | > 100 | > 100 | > 100 | > 100 | > 100 | 
